Source: patent publication US6284754A, “Pharmaceutical compositions containing 1-oleylazacycloheptan-2-one as enhancing agent of transport across biological membranes” (Schwarz Pharma AG, priority 1992, dated 2001)

Key:
[1] = sole anti-inflammatory agent, topical on human or animal skin, about 10 to 100%; cited from earlier work
human dermal fibroblasts = experiment: Collagen contraction test (in vitro skin cell toxicity screening); assay type: cell-based; conditions: for IC50: Fibroblast, collagen sheets containing human dermal fibroblasts, read-out: IC50 (concentration at which shrinkage is 50% of the control); for toxicity (in words): compared with other azones
Method: Skin toxicity tests were performed using the so-called collagen contraction test (Ponec et al. Journal of Pharmaceutical Sciences Vol. 78, No. 9, September 1989 and Vol. 79, No. 4, April 1990). […] The concentration of the agent, at which the shrinkage is 50% of the control, is taken as the IC50, the "50% inhibition level".

[2] = Skin transport kinetics: nitroglycerin penetration through stratum corneum pretreated with 1-alkylazacycloheptan-2-ones; assay type: in vitro ADME, human; conditions: compared with other 1-alkylazacycloheptan-2-ones
Method: Human stratum corneum samples (18 mm in diameter) were obtained from fresh human skin (abdomen) by trypsinization. The stratum corneum samples were firstly prehydrated at 95% relative humidity (RH) over a saturated disodium hydrogen phosphate solution, then either submerged for 24 hours at 34° C. with 200 microliter of a 10% solution of an alkyl-aza-cycloheptan-one in propylene glycol by topical application, or directly used for a diffusion study.
The stratum corneum samples were subsequently sandwiched between silastic sheetings (127 micrometer thick silicone membranes, Dow Corning) which have been proven not to control the transport rate of the model drug used in the study, nitroglycerin. The thus obtained sandwiches were clamped in two-chamber flow-through diffusion cells and subjected to 24 hours diffusion experiments. The donor compartment having a volume of 16μl was flushed with a 0.05% nitroglycerin solution at a pumping rate of 35 ml/hr. […] Fractions of the acceptor fluid were collected at 1 hour intervals, and nitroglycerin was detected using a reversed phase HPLC procedure (chrom-sphere C18 100×30 mm column eluted at 22° C. (methanol:water=1:1) at a 1.1 ml/min flow rate (Spectroflow 400, Kratos.). The absorbance at 201 nm of the effluent was monitored on Waters 450 var. wavelength detector).

[3] = Freeze-fracture electron microscopy of pretreated stratum corneum; conditions: 24 h pretreatment with solution in propylene glycol
Method: For freeze-fracture electron microscopy stratum corneum samples were pretreated during 24 hours with solutions of azacycloheptanones in propylene glycol by applying about 200 microliter per cm^2 of the solution on the apical surface. Samples were then snapfrozen in melting nitrogen (method according to Umrath, J. Microsc. 101: 103 (1974)), cross-fractured (Holman et al., J. Invest. Dermatol, 94: 332 (1990) )in a Balzers Freeze Fracture apparatus (Balzers 400 BAF) at high vacuum. The fracture surfaces were then shadowed with Pt and overcast with a layer of carbon. Upon thawing, the samples were cleaned to obtain the surface replicas. These were scooped up on copper grids and examined in a transmission electron microscope (Philips 401, operated at 80 kV).

[4] = Differential thermal analysis (DTA) of pretreated stratum corneum; design: species or system human; conditions: 24 h pretreatment in enhancer solution
Method: For differential thermal analysis human stratum corneum samples were pretreated (after prehydration) by submersion in the in test 1 described enhancer solutions for 24 hours, using untreated prehydrated stratum corneum samples as controls. Differential thermal analysis of ca. 20 mg samples was then performed on a differential scanning calorimeter (Maple).

| SMILES | anti-inflammatory action, topical (in words) [1] | IC50 (human dermal fibroblasts) | enhancement of nitroglycerin transport / percutaneous absorption (in words) [2] | enhancement of nitroglycerin transport / percutaneous absorption (in words) ([2]; listed as oleyl derivative) | electron microscopic findings in stratum corneum (in words) [3] | influence on gel-liquid transition temperature and transition enthalpy (in words) [4] | transition enthalpy of the intercellular lipids (gel-liquid transition) ([4]; control 7 J.g-1) | toxicity (in words) (human dermal fibroblasts; listed as 1-oleyl-azacyclo-heptan-2-one) | toxicity (in words) (human dermal fibroblasts; listed as 1-oleylazacycloheptan-2-one) | toxicity (in words) (human dermal fibroblasts; listed as oleyl azone) |
| --- | --- | --- | --- | --- | --- | --- | --- | --- | --- | --- |
| CCCCCCCCCCCCN1CCCCCC1=O [C12, 1-dodecylazacycloheptan-2-one, reference compound] | capable of temporarily reducing the signs and symptoms of inflammation | 240 µM | – | – | – | – | – | – | – | – |
| CCCCCCCC/C=C\CCCCCCCCN1CCCCCC1=O [C18, 1-oleylazacycloheptan-2-one] | – | 800 µM | more potent enhancer for percutaneous absorption than the 1-alkylazacycloheptan-2-ones according to the prior art | by far the most potent enhancer with respect to nitroglycerin transport | penetrates deeply into the stratum corneum and induces the separation of a non-lamellar phase | strongly influences both the gel-liquid transition temperature of the intercellular lipids, and the corresponding transition enthalpy | 3.3 J/g | moderately toxic | less toxic than the 1-dodecylazacycloheptan-2-one | almost the least toxic azone among the effective enhancers (from C10 up to C18), and less toxic than C12 azone |
